Consider four molecules from patent publication US20080039408A1, “Use of Oxypurinol as an Inhibitor of Anti-Neoplastic Agent-Induced Cardiotoxicity” (priority 2004, published 2008).

SMILES strings stand for the structures. Counter-ions that a name gives are not always drawn.

One data set deals with xanthine oxidase (Homo sapiens, UniProt P47989). As to conditions: cited from earlier work.
The next data set concerns laboratory animals. As to conditions: all laboratory animals tested; cited from earlier work.
The next data set concerns patients. The note with it: 4-15 years after completion of chemotherapy; cited from earlier work.

xanthine oxidase, sequence (P47989 whole entry, species assumed): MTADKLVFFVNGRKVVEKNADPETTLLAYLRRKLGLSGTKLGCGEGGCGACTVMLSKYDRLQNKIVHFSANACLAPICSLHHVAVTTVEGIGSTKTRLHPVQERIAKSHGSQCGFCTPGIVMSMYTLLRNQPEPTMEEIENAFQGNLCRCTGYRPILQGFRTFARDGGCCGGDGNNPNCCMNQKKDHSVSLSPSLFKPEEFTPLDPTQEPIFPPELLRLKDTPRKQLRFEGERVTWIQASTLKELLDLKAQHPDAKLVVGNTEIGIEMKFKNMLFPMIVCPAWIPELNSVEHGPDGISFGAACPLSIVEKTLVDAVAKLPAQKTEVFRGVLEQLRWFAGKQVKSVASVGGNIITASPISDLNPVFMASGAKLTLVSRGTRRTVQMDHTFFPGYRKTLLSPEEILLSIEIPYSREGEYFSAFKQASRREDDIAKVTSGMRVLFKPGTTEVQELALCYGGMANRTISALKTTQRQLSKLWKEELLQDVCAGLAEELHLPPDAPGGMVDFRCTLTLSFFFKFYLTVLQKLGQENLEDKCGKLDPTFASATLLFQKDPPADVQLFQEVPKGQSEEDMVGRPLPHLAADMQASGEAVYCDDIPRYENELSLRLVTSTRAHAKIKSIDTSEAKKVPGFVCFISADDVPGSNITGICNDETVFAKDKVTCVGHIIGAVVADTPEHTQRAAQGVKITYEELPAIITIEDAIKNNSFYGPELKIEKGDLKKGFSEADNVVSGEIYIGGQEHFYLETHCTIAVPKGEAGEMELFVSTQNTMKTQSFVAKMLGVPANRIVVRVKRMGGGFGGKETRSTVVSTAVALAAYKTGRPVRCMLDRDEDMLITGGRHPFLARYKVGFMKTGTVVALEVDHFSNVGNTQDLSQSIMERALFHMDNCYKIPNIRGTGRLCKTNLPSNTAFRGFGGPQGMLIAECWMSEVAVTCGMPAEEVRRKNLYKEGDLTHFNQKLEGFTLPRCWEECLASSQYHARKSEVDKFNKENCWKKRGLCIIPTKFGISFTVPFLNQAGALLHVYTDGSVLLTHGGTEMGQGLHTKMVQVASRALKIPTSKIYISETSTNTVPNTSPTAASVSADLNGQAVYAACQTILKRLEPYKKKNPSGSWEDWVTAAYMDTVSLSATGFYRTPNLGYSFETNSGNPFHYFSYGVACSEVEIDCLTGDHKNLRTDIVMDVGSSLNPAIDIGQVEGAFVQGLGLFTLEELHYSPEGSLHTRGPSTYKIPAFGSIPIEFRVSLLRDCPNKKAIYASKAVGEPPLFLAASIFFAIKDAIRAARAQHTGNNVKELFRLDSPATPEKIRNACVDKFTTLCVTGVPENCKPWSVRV
Description for Female CD1 mice: Female CD1 mice, weighing 20-22 g, were obtained from Charles River with implanted jugular catheters. Prior to induction of doxorubicin cardiotoxicity, the animals were randomly divided into 2 groups: • Group 1: Treatment with Oxypurinol (n=15), 26 mg/dl in the drinking water, start 3 days prior to doxorubicin dose and continue to sacrifice. • Group 2: Treatment with Vehicle (Saline) (n=10), start 3 days prior to doxorubicin dose and continue to sacrifice.
For induction of doxorubicin cardiotoxicity, doxorubicin, dissolved in saline, was injected by IV through the jugular catheter twice a week (Monday and Thursday) ten times at dose 4 mg/kg/day. Between doses 4 and 5 there was a two weeks hiatus to allow recovery of bone marrow suppression.
Seventeen mice were included in the vehicle Group 2. Two mice had jugular catheters that were nonoperable and excluded at the outset. Fifteen mice were included in the drug Group 1.
Seven surviving vehicle Group 2 (control) animals were sacrificed and 11 surviving drug Group 1 mice were sacrificed.

On to `Oc1ncnc2[nH]ncc12` [allopurinol, 1,5-dihydro4H-pyrazolol[3,4-d}pyrimidin-4-one monosodium salt, reference compound], for which the “immediate inhibition of superoxide radical production” value at xanthine oxidase is “very little immediate inhibition”.
Regarding `C[C@@H](CN1CC(=O)NC(=O)C1)N1CC(=O)NC(=O)C1` [dexrazoxane], the “chronic cardiotoxicity in laboratory animals” value in the data set with laboratory animals is on record as “prevents chronic cardiotoxicity”.
As for `COc1cccc2c1C(=O)c1c(O)c3c(c(O)c1C2=O)C[C@@](O)(C(=O)CO)C[C@@H]3O[C@H]1C[C@H](N)[C@H](O)[C@H](C)O1` [doxorubicin, 14-hydroxydaunomycin], in the data set with patients, the “late onset chronic cardiac events, share of patients” value was 18-65%.
As to `O=c1[nH]c(=O)c2c[nH]nc2[nH]1` [oxypurinol], the “cellular necrosis score, difference vs vehicle” value with Female CD1 mice (histology of surviving mice sacrificed prior to dose 4 of doxorubicin) is given as “not statistically significant”. Further, the “mean cellular swelling score” value with Female CD1 mice (histology of surviving mice sacrificed prior to dose 4 of doxorubicin, 11 mice, p=0.004 vs vehicle) worked out at 1.8±0.4. In the data set with Female CD1 mice (oxypurinol 26 mg/dl in drinking water from 3 days before doxorubicin, doxorubicin 4 mg/kg/day IV twice a week, 15 mice in group), the “deaths following 3 doses of doxorubicin” value turned out to be 3 deaths. Moreover, in the data set on Female CD1 mice (oxypurinol Group 1 vs vehicle Group 2, doxorubicin-treated mice), the “mortality vs vehicle group” value is listed as “highly significant decrease in mortality”. Also, at xanthine oxidase, the “immediate inhibition of superoxide radical production” value is reported as “produces immediate inhibition”.
